6 compounds from patent US20260356830A1, “COMPOUNDS FOR MODULATING RET PROTEIN” (Bristol-Myers Squibb Company, priority 2022, published 2026) can be followed below.

Where only a bound is given, the exact number is not on record here.

This assay concerns the target T1, CCDC6-RET (Homo sapiens, UniProt P07949+Q16204+Q96SW2).
T1 construct: CCDC6 (natural N-terminal fusion partner, UniProt Q16204); endogenous in cells; host or cells: TPC-1 (parental, papillary thyroid carcinoma)
In words: Cellular RET degradation, AlphaLISA, TPC-1 cell line. The assay is classed as cell-based. Particulars: for Dmax: TPC1, human, 24 h, read-out: Cell Density TPC-1/CCDC6-RET Ymax %; for DC50: read-out: Cell Density TPC-1/CCDC6-RET DC50, half-maximal degradation concentration, TPC-1 (CCDC6-RET), 24 hrs. The method in brief: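 Luminescent AlphaLISA read of RET abundance in lysates after 24 h compound exposure (37 °C, 2% FBS DMEM) of CCDC6-RET-bearing TPC-1 cells. % degradation relative to DMSO (high) and media (low) controls, fitted to 4-parameter logistic curve for DC50 and Ymax.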

T1 sequence (Q16204+P07949 fused): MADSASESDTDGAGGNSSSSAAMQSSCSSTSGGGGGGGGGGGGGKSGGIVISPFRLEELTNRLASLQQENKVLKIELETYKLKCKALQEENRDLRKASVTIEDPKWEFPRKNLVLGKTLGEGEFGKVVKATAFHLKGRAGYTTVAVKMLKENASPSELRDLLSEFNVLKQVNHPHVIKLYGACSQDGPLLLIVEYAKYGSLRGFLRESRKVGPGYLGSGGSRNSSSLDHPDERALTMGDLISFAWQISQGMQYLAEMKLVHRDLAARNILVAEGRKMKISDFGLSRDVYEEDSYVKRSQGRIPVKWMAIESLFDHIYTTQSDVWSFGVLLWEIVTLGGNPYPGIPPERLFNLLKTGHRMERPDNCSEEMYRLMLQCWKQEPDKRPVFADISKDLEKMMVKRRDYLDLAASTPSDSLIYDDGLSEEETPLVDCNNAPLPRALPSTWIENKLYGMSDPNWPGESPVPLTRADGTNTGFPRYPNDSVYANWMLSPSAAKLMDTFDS
T1 sequence (Q96SW2 whole entry, the tested form may be a part): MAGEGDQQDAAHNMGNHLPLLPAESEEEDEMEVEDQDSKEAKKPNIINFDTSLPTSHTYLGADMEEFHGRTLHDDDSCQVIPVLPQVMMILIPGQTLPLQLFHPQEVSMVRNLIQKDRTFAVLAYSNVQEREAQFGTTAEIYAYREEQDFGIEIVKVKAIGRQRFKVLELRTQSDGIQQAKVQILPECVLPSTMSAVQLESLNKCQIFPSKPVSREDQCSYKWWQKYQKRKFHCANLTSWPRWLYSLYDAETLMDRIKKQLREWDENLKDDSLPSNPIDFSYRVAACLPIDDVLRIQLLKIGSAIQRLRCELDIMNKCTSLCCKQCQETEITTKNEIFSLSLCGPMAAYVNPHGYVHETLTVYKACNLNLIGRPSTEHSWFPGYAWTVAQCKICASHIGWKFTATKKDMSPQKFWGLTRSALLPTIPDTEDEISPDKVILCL
T1 sequence (Q16531 whole entry partner, the tested form may be a part): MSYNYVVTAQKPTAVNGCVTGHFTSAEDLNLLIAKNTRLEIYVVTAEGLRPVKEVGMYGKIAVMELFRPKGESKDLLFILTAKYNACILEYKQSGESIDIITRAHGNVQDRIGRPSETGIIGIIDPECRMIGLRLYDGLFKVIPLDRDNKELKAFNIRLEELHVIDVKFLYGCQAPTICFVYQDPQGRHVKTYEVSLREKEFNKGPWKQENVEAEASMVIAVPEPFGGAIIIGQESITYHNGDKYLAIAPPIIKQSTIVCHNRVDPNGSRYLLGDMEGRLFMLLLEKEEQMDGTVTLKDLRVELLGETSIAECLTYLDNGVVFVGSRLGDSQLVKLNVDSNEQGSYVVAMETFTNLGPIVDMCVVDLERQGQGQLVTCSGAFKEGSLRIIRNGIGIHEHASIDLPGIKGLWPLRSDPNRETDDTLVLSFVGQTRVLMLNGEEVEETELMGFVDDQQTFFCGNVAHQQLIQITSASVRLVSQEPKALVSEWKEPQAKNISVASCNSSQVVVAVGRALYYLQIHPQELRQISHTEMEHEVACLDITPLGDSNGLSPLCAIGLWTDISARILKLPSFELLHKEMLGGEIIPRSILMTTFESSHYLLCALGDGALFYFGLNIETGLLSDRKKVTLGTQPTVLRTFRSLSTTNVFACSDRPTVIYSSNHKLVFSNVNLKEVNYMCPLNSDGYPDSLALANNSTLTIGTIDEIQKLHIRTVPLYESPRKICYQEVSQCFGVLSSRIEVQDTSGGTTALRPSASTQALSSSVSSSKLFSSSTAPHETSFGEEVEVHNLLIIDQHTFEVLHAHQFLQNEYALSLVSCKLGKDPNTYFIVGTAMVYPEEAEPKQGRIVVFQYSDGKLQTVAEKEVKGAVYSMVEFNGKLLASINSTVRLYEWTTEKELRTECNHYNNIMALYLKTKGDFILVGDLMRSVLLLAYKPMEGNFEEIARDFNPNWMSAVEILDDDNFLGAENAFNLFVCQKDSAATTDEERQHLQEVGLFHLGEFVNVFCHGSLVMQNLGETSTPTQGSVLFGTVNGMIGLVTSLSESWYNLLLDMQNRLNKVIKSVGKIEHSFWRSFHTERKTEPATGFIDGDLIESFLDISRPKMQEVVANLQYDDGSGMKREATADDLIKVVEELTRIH

As for `CCOc1cc(-c2ccc(N3CCC(CN(C)C(=O)CCCCCCN4CCN(c5ccc6c(c5)C(=O)N(C5CCC(=O)NC5=O)C6)CC4)(NC(=O)c4cc(F)ccc4F)CC3)nc2)c2c(C#N)cnn2c1` (stereo not drawn) [Example 143, N-[1-(5-{3-cyano-6-ethoxypyrazolo[1,5-a]pyridin-4-yl}pyridin-2-yl)-4-[(7-{4-[2-(2,6-dioxopiperidin-3-yl)-3-oxo-2,3-dihydro-1H-isoindol-5-yl]piperazin-1-yl}-N-methylheptanamido)methyl]piperidin-4-yl]-2,5-difluorobenzamide], the Dmax was above 90% and the DC50 fell in the range of 2 to 10 nM.

Consider `CCOc1cc(-c2ccc(N3CCC(CN4CCN(C(=O)C5CC6(CC(Nc7ccc8c(N9CCC(=O)NC9=O)nn(C)c8c7)C6)C5)CC4)(NC(=O)c4cc(F)ccc4F)CC3)nc2)c2c(C#N)cnn2c1` (stereo not drawn) [Example 93, N-[1-(5-{3-cyano-6-ethoxypyrazolo[1,5-a]pyridin-4-yl}pyridin-2-yl)-4-{[4-(6-{[3-(2,4-dioxo-1,3-diazinan-1-yl)-1-methyl-1H-indazol-6-yl]amino}spiro[3.3]heptane-2-carbonyl)piperazin-1-yl]methyl}piperidin-4-yl]-2,5-difluorobenzamide], for which the Dmax is above 90% and the DC50 was 2 to 10 nM.

For the compound `CCOc1cc(-c2ccc(N3CCC(CN4CCN(C(=O)C5CC6(C5)CC(N5CCC(c7ccc8c(c7)CN(C7CCC(=O)NC7=O)C8=O)CC5)C6)CC4)(NC(=O)c4cc(F)ccc4F)CC3)nc2)c2c(C#N)cnn2c1` (stereo not drawn) [Example 92, N-[1-(5-{3-cyano-6-ethoxypyrazolo[1,5-a]pyridin-4-yl}pyridin-2-yl)-4-{[4-(6-{4-[2-(2,6-dioxopiperidin-3-yl)-1-oxo-2,3-dihydro-1H-isoindol-5-yl]piperidin-1-yl}spiro[3.3]heptane-2-carbonyl)piperazin-1-yl]methyl}piperidin-4-yl]-2,5-difluorobenzamide], the Dmax is above 90% and the DC50 fell in the range of 2 to 10 nM.

In the case of `CCOc1cc(-c2ccc(N3CCC(NC(=O)c4cc(F)ccc4F)(C(=O)NCCCCCCN4CCN(c5ccc6c(c5)C(=O)N(C5CCC(=O)NC5=O)C6)CC4)CC3)nc2)c2c(C#N)cnn2c1` (stereo not drawn) [Example 160, 1-(5-{3-cyano-6-ethoxypyrazolo[1,5-a]pyridin-4-yl}pyridin-2-yl)-4-(2,5-difluorobenzamido)-N-(6-{4-[2-(2,6-dioxopiperidin-3-yl)-3-oxo-2,3-dihydro-1H-isoindol-5-yl]piperazin-1-yl}hexyl)piperidine-4-carboxamide], the Dmax was above 90% and the DC50 was 2 to 10 nM.

Turning to `CCOc1cc(-c2ccc(N3CCC(NC(=O)c4cc(F)ccc4F)(C(=O)NCCCCN4CCN(c5ccc6c(c5)CN(C5CCC(=O)NC5=O)C6=O)CC4)CC3)nc2)c2c(C#N)cnn2c1` (stereo not drawn) [Example 154, 1-(5-{3-cyano-6-ethoxypyrazolo[1,5-a]pyridin-4-yl}pyridin-2-yl)-4-(2,5-difluorobenzamido)-N-(4-{4-[2-(2,6-dioxopiperidin-3-yl)-1-oxo-2,3-dihydro-1H-isoindol-5-yl]piperazin-1-yl}butyl)piperidine-4-carboxamide], the Dmax fell in the range of 60 to 90% and the DC50 lay in the range of 10 to 100 nM.

In the case of `CCOc1cc(-c2ccc(N3CCC(CN4CCC5(CC4)CCN(C(=O)COc4ccc6c(c4)CN(C4CCC(=O)NC4=O)C6=O)CC5)(NC(=O)c4cc(F)ccc4F)CC3)nc2)c2c(C#N)cnn2c1` (stereo not drawn) [Example 99, N-[1-(5-{3-cyano-6-ethoxypyrazolo[1,5-a]pyridin-4-yl}pyridin-2-yl)-4-{[9-(2-{[2-(2,6-dioxopiperidin-3-yl)-1-oxo-2,3-dihydro-1H-isoindol-5-yl]oxy}acetyl)-3,9-diazaspiro[5.5]undecan-3-yl]methyl}piperidin-4-yl]-2,5-difluorobenzamide], the Dmax fell in the range of 60 to 90% and the DC50 is below 2 nM.
